In one assay the test system is T47D cells. As to the kind of experiment: Cell cycle analysis by flow cytometry (PI), T47D. In kind it is cell-based, human. The note with it: 5 μM, 6 days (4-HPR 4 days). On the procedure:
MCF-7 and T47D cells were plated in T-25 flasks and allowed to adhere for about 18 h. The cells were then synchronised by growing them in low-serum OPTI-MEM I medium for 2 days. […] After 6-day treatment, the cells were trypsinised, washed twice with PBS, centrifuged at 2500 r.p.m. to obtain a cell pellet. The cells (about 1–2 × 10^6) were fixed with 3 ml of 70% ethanol (by adding drop-wise and taking care that the cells are not clumped together). Cells were kept at −20°C until further analysis (at least overnight). Next, cells (∼1–2 × 10^6) were stained with 1 ml of propidium iodide (PI) (50 μg ml^−1)/RNase (100 μg ml^−1) solution and after about half an hour the fluorescence of stained nuclei (15 000 events) was analysed by flow cytometry (Becton Dickinson FACScan Instrument and quantification by Modfit LT version 3.1 software) with excitation wavelength of 488 nm. The percentage of G1, S, G2/M and sub-G1 (apoptotic cells) in the population of treated and untreated cells were determined.

The next assay relates to CK 8/18. As to the kind of experiment: Western immunoblotting for CK 8/18 in MCF-7 and T47D cells. In kind it is cell-based, human. As to conditions: 6 days; for Increase in expression of CK 8/18 compared with control: 1 and 5 μM, MCF-7 and T47D cells; for Effect on expression of CK 8/18 (in words): 5 μM, MCF-7 cells. On the procedure:
At the end of the treatment, cells were scrapped and collected by washing with ice-cold PBS in a centrifuge tube. Cells were centrifuged at 2500 r.p.m. for 10 min, the pellet was again washed with ice-cold PBS and centrifuged. The cell pellet was then suspended in chilled cell lysis buffer (0.1 M Tris–HCl, 0.5% Triton X-100, protease inhibitor cocktail) and sonicated on ice for 10–15 s. The homogenate was kept on ice for 30 min and then centrifuged at 13 000 r.p.m. for 30 min. The supernatant was used as cell lysate. The cell lysates were stored at −80°C. Protein concentration of the cell lysates was determined using Bio-Rad protein assay reagents.
Protein lysates from MCF-7 and T47D cells were subjected to sodium dodecyl sulphate–polyacrylamide gel electrophoresis (SDS–PAGE) and immunoblotted for different proteins. Equal amounts of protein (25–50 μg) were subjected to SDS–PAGE at 60 V for 3 h using the mini PROTEAN3 electrophoresis module assembly (Bio-Rad, Hercules, CA, USA), and transferred to nitrocellulose membranes (Hybond ECL, Amersham). Immunodetections were carried out using antibodies against CK 8/18 (1° antibody – 1 : 8000 in 10% milk PBST), E-cadherin (1° antibody – 1 : 1000 in 5% milk in TBST) and ER-α (1° antibody – 1 : 200 in 5% milk PBST) purchased from Santa Cruz Biotechnology Inc. Antibodies against PARP (1° antibody – 1 : 1000 in 5% milk TBST), cyclin- D1 (1° antibody – 1 : 2000 in 10% milk TBST), caspase-9 (1° antibody – 1 : 1000 in 10% milk TBST) and BAD (1° antibody – 1 : 1000 in 5% BSA TBST) were obtained from Cell Signaling Technology. Antibody for β-actin was obtained from Calbiochem (CA, USA). Secondary anti-mouse IgG HRP conjugate antibody was purchased from Calbiochem and Bio-Rad. Secondary anti-rabbit IgG HRP conjugate antibody was bought from Bio-Rad as well as from Kirkegaard and Perry laboratories (Gaithersburg, MD, USA). Immunoreactive bands were visualised using the enhanced chemiluminescence detection reagents and analysis system (Amersham Bioscences) according to the manufacturer's instructions and quantified by densitometry using ImageQuant software version 5.
The effects of these agents on the expression levels of markers associated with differentiation (CK 8/18 and ER-α) were investigated following established procedures ([Jing et al, 1996]; [Korsching et al, 2002]; [Kim and Freeman, 2003]; [Woelfle et al, 2004]). […] At the end of the treatment, cell lysates were prepared and the expression of cytoskeletal proteins CK 8/18 were evaluated by Western immunoblotting. […] Unexpectedly, VN/66-1 and VN/69-1 caused downregulation in the expression of CK 8/18.
Numbers below the blot show fold increase in expression of the protein as analysed by ImageQuant densitometry analysis. […]

The next assay addresses T1, RARγ (Mus musculus, UniProt P18911).
T1 construct: expressed in transfected cells; host or cells: CV-1 cells
T1 sequence (P18911 1-458): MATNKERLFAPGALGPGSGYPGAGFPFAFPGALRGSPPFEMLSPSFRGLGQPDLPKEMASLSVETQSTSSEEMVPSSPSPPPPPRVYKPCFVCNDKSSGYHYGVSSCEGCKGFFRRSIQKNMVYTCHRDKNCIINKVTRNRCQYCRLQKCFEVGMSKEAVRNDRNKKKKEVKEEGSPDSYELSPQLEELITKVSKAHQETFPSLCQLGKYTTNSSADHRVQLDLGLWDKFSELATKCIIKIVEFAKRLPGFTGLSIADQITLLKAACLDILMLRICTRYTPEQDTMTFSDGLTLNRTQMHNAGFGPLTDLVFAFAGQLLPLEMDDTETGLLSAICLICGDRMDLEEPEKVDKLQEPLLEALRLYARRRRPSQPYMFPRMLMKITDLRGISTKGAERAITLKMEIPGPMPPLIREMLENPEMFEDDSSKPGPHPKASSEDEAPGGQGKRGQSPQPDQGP
The experiment in a line: Transactivation assay (RARE-CAT reporter, CV-1 cells), RARγ. It counts as cell-based. The note with it: 50% of maximal activity obtained with 10^−6 M all-trans-RA. As to the method:
Briefly, CV-1 cells were cotransfected with 4 μg RAR subtype (RARα, RARβ or RARγ) expression vector construct in pSG5, 4 μg RARE-CAT reporter DNA and 1 μg pCMV-β-gal DNA. Twenty-four hours following transfection, the cells were treated with various concentrations of each RAMBA ranging from 10^−11–10^−5 M along with an ethanol carrier control. Additional cells were treated with 10^−6 M all-trans-RA for normalisation. Twenty-four hours later, the cells were harvested and CAT and β-gal activities were assayed.

In the next assay the target is T2, CRABPI (Mus musculus, UniProt P62965).
T2 construct: Wild-type full-length cDNAs for mouse CRABPI and CRABPII were subcloned into the prokaryotic expression vector pRSETB; pRSETB vector fusion leader (purified on Ni-NTA, so a His tag); made in house; host or cells: Escherichia coli BL21(DE3)pLys
As to the kind of experiment: CRABP competition binding assay, CRABPI. As to conditions: competition with [3H]-all-trans-RA; read-out: CRAPBI IC50. As to the method: IC50 values were calculated as described above in the RAR binding studies.

The structures appear in SMILES notation.

T2 sequence (P62965 whole entry, the tested form may be a part): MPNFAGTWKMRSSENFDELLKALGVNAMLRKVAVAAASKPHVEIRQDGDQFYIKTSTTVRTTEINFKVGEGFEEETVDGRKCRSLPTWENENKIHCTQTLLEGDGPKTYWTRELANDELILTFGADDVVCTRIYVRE

As for `CC1=C(/C=C/C(C)=C/C=C/C(C)=C/C(=O)O)C(C)(C)CCC1` [ATRA, all-trans-retinoic acid, reference compound], in the assay with T47D cells, the “G2/M (%)” value is listed as 13.03±4.06%, the “Go/G1 (%)” value is recorded as 83.89±0.96%, the “S (%)” value came out at 3.1±1.3% and the “Sub-G1 (%)” value is reported as 17.12±4.06%. The “Increase in expression of CK 8/18 compared with control” value in the assay on CK 8/18 is listed as 2–3 fold.
As to `CC1=C(/C=C/C(C)=C/C=C/C(C)=C/C(=O)O)C(C)(C)CCC1n1ccnc1` (centres unmarked) [VN/14-1], a half-maximal response on RARγ (EC50) required 1000 nM. Further, in the assay on T47D cells, the “G2/M (%)” value was determined as 20.85±3.75%, the “Go/G1 (%)” value is given as 77.98±2.56%, the “S (%)” value is 1.18±1.0% and the “Sub-G1 (%)” value is 22.38±2.95%. Besides, the IC50 on CRABPI was more than 500 nM. The “Increase in expression of CK 8/18 compared with control” value in the assay on CK 8/18 is listed as 2–3 fold.
For `CC1=C(/C=C/C(C)=C/C=C/C(C)=C/C(=O)Nc2ccc(O)cc2)C(C)(C)CCC1n1ccnc1` (centres unmarked) [VN/66-1], the EC50 on RARγ is more than 10000 nM. For the same compound, in the assay with T47D cells, the “G2/M (%)” value is 19.57±0.21%, the “Go/G1 (%)” value is reported as 80.44±0.20%, the “S (%)” value is on record as 0% and the “Sub-G1 (%)” value was found to be 26.41±1.18%. For the same compound, at CRABPI, the IC50 was more than 500 nM. For the same compound, the “Effect on expression of CK 8/18 (in words)” value in the assay on CK 8/18 is “downregulation”.
Regarding `CC1=C(/C=C/C(C)=C/C=C/C(C)=C\C(=O)Nc2ccc(O)cc2)C(C)(C)CCC1n1ccnc1` (centres unmarked) [VN/69-1], at RARγ, the EC50 was more than 10000 nM. In the assay with T47D cells, the “G2/M (%)” value amounted to 21.01±0.99%, the “Go/G1 (%)” value is given as 78.99±0.99%, the “S (%)” value came to 0% and the “Sub-G1 (%)” value is 24.34±1.24%. Besides, the IC50 on CRABPI was more than 500 nM. In addition, in the assay on CK 8/18, the “Effect on expression of CK 8/18 (in words)” value was “downregulation”.

The values are drawn from article PMC2360155, “Novel retinoic acid metabolism blocking agents have potent inhibitory activities on human breast cancer cells and tumour growth” (British Journal of Cancer, 2007).
